Data reported in patent US12247010B2, “Tubulin inhibitors” (LIN BIOSCIENCE PTY LTD., priority 2017, dated 2025).
pIC50: −log10 of the molar value.

Test system: U87MG cells
Experiment: Cytotoxicity assay (cell viability, CellTiter 96 Aqueous MTS)
Assay type: cell-based
Details: Homo sapiens, U-87 MG, 72 h, 72 hours incubation, starting concentration 50 uM, 9 point half log dilution, average where tested repeatedly
How it was run: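 U87MG cells plated at 7×10^3 cells/well overnight, then treated 72 h with 9-point half-log dilutions from a 50 uM starting concentration. Viability measured with CellTiter 96 Aqueous MTS; IC50 calculated from viability.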

Row | SMILES | pIC50
1 | Cn1ncc2cc(-c3ccc(CCCNC(=O)c4cncnc4)cc3)ccc21 [Compound 231, N-(3-(4-(1-methyl-1H-indazol-5-yl)phenyl)propyl)pyrimidine-5-carboxamide] | > 6.30
2 | O=C(NCCCc1ccc(-c2ccccc2F)cc1)c1cn[nH]c1 [Compound 66, N-(3-(2′-fluoro-[1,1′-biphenyl]-4-yl)propyl)-1H-pyrazole-4-carboxamide] | < 5.30
3 | COc1ccc(CC(=O)NCCCc2ccc(-c3ccc4ncccc4c3)cc2)cc1 [Compound 246, 2-(4-methoxyphenyl)-N-(3-(4-(quinolin-6-yl)phenyl)propyl)acetamide] | > 6.30
4 | O=C(CCCc1ccc(-c2cc3cn[nH]c3cc2F)cc1)Nc1cccnc1 [Compound 209, 4-(4-(6-fluoro-1H-indazol-5-yl)phenyl)-N-(pyridin-3-yl)butanamide] | > 6.30
5 | O=C(NCCCc1ccc(-c2ccccc2F)cc1)c1cnc2ccccn12 [Compound 137, N-(3-(2′-fluoro-[1,1′-biphenyl]-4-yl)propyl)imidazo[1,2-a]pyridine-3-carboxamide] | 5.30 to 6.00
6 | O=C(CCCc1ccc(-c2ccc(C(F)(F)F)cc2F)cc1)Nc1cccnc1 [Compound 189, 4-(2′-fluoro-4′-(trifluoromethyl)-[1,1′-biphenyl]-4-yl)-N-(pyridin-3-yl)butanamide] | 5.30 to 6.00
7 | COc1ccc(-c2ccc(CCCC(=O)Nc3cccnc3)cc2)cn1 [Compound 167, 4-(4-(6-methoxypyridin-3-yl)phenyl)-N-(pyridin-3-yl)butanamide] | < 5.30
8 | Cc1cc(C(=O)NCCCc2ccc(-c3ccccc3F)cc2)on1 [Compound 128, N-(3-(2′-fluoro-[1,1′-biphenyl]-4-yl)propyl)-3-methylisoxazole-5-carboxamide] | 6.00 to 6.30
9 | Cc1cc(C(=O)NCCCc2ccc(-c3ccc4ncccc4c3)cc2)n(C)n1 [Compound 242, 1,3-dimethyl-N-(3-(4-(quinolin-6-yl)phenyl)propyl)-1H-pyrazole-5-carboxamide] | > 6.30
10 | O=C(NCCCc1ccc(-c2ccccc2F)cc1)c1ccc2[nH]ncc2c1 [Compound 73, N-(3-(2′-fluoro-[1,1′-biphenyl]-4-yl)propyl)-1H-indazole-5-carboxamide] | 5.30 to 6.00
11 | O=C(CCCc1ccc(-c2ccc3nccn3c2)cc1)Nc1cccnc1 [Compound 197, 4-(4-(imidazo[1,2-a]pyridin-6-yl)phenyl)-N-(pyridin-3-yl)butanamide] | < 5.30
12 | O=C(NCCCc1ccc(-c2ccccc2F)cc1)c1cncc(C(F)(F)F)c1 [Compound 85, N-(3-(2′-fluoro-[1,1′-biphenyl]-4-yl)propyl)-5-(trifluoromethyl)nicotinamide] | 5.30 to 6.00
13 | O=C(Cc1ccc2c(c1)OCCO2)NCCCc1ccc(-c2ccccc2F)cc1 [Compound 293, 2-(2,3-dihydrobenzo[b][1,4]dioxin-6-yl)-N-(3-(2′-fluoro-[1,1′-biphenyl]-4-yl)propyl)acetamide] | < 5.30
14 | Cn1nc2ccccc2c1C(=O)NCCCc1ccc(-c2ccccc2F)cc1 [Compound 143, N-(3-(2′-fluoro-[1,1′-biphenyl]-4-yl)propyl)-2-methyl-2H-indazole-3-carboxamide] | < 5.30
15 | COc1ccc(CC(=O)NCCCc2ccc(-c3cnc4[nH]ccc4c3)cc2)cc1 [Compound 316, N-(3-(4-(1H-pyrrolo[2,3-b]pyridin-5-yl)phenyl)propyl)-2-(4-methoxyphenyl)acetamide] | > 6.30
16 | O=C(Nc1ccc2[nH]ccc2c1)OCCc1ccc(-c2ccccc2F)cc1 [Compound 272, 2-(2′-fluoro-[1,1′-biphenyl]-4-yl)ethyl (1H-indol-5-yl)carbamate] | < 5.30
17 | O=C(NCCCc1ccc(-c2ccccc2F)cc1)c1cccnn1 [Compound 65, N-(3-(2′-fluoro-[1,1′-biphenyl]-4-yl)propyl)pyridazine-3-carboxamide] | < 5.30
18 | Cc1cc(C(=O)NCCCc2ccc(-c3ccc4[nH]ncc4c3C)cc2)n(C)n1 [Compound 228, 1,3-dimethyl-N-(3-(4-(4-methyl-1H-indazol-5-yl)phenyl)propyl)-1H-pyrazole-5-carboxamide] | > 6.30
19 | O=C(CCCc1ccc(-c2cnc(N3CCOCC3)nc2)cc1)Nc1cccnc1 [Compound 205, 4-(4-(2-morpholinopyrimidin-5-yl)phenyl)-N-(pyridin-3-yl)butanamide] | < 5.30
20 | O=C(CCCc1ccc(-c2cnc3[nH]ccc3c2)cc1)Nc1cccnc1 [Compound 181, 4-(4-(1H-pyrrolo[2,3-b]pyridin-5-yl)phenyl)-N-(pyridin-3-yl)butanamide] | > 6.30
21 | Cc1ccc(C(=O)NCCCc2ccc(-c3ccccc3F)cc2)cn1 [Compound 71, N-(3-(2′-fluoro-[1,1′-biphenyl]-4-yl)propyl)-6-methylnicotinamide] | > 6.30
22 | COc1cccc(-c2ccc(CCCNC(=O)c3cncnc3)cc2)c1F [Compound 248] | 6.00 to 6.30
23 | O=C(CCCc1ccc(-c2ccccc2F)cc1)Nc1ccc2[nH]c(=O)[nH]c2c1 [Compound 58, 4-(2′-fluoro-[1,1′-biphenyl]-4-yl)-N-(2-oxo-2,3-dihydro-1H-benzo[d]imidazol-5-yl)butanamide] | < 5.30

Row | SMILES | pIC50
24 | COc1ccc(CC(=O)NCCCc2ccc(-c3ccccc3F)cc2)cc1F [Compound 126, 2-(3-fluoro-4-methoxyphenyl)-N-(3-(2′-fluoro-[1,1′-biphenyl]-4-yl)propyl)acetamide] | 5.30 to 6.00
25 | O=C(Cn1ccnc1)NCCCc1ccc(-c2ccccc2F)cc1 [Compound 124, N-(3-(2′-fluoro-[1,1′-biphenyl]-4-yl)propyl)-2-(1H-imidazol-1-yl)acetamide] | < 5.30
26 | COc1ncccc1C(=O)NCCCc1ccc(-c2ccccc2F)cc1 [Compound 292, N-(3-(2′-fluoro-[1,1′-biphenyl]-4-yl)propyl)-2-methoxynicotinamide] | < 5.30
27 | O=C(CCCc1ccc(-c2cccc(C(F)(F)F)c2F)cc1)Nc1cccnc1 [Compound 220, 4-(2′-fluoro-3′-(trifluoromethyl)-[1,1′-biphenyl]-4-yl)-N-(pyridin-3-yl)butanamide] | > 6.30
28 | COc1cccc(-c2ccc(CCCNC(=O)c3cc(C)on3)cc2)c1F [Compound 240, N-(3-(2′-fluoro-3′-methoxy-[1,1′-biphenyl]-4-yl)propyl)-5-methylisoxazole-3-carboxamide] | 6.00 to 6.30
29 | O=C(CCCc1ccc(-c2ccccc2F)cc1)NCc1ccccn1 [Compound 43, 4-(2′-fluoro-[1,1′-biphenyl]-4-yl)-N-(pyridin-2-ylmethyl)butanamide] | 5.30 to 6.00
30 | Cc1cncc(C(=O)NCCCc2ccc(-c3ccccc3F)cc2)c1 [Compound 80, N-(3-(2′-fluoro-[1,1′-biphenyl]-4-yl)propyl)-5-methylnicotinamide] | 5.30 to 6.00
31 | O=C(Nc1cccnc1)N1CCN(c2ccc(-c3ccccc3F)cc2)CC1 [Compound 278, 4-(2′-fluoro-[1,1′-biphenyl]-4-yl)-N-(pyridin-3-yl)piperazine-1-carboxamide] | 5.30 to 6.00
32 | O=C(NCCCc1ccc(-c2ccccc2F)cc1)C(F)(F)c1ccccc1 [Compound 108, 2,2-difluoro-N-(3-(2′-fluoro-[1,1′-biphenyl]-4-yl)propyl)-2-phenylacetamide] | > 6.30
33 | Cn1cc(CNC(=O)CCCc2ccc(-c3ccccc3F)cc2)cn1 [Compound 48, 4-(2′-fluoro-[1,1′-biphenyl]-4-yl)-N-((1-methyl-1H-pyrazol-4-yl)methyl)butanamide] | 5.30 to 6.00
34 | Cc1cc(C(=O)NCCCc2ccc(-c3cnc4[nH]ccc4c3)cc2)no1 [Compound 235, N-(3-(4-(1H-pyrrolo[2,3-b]pyridin-5-yl)phenyl)propyl)-5-methylisoxazole-3-carboxamide] | > 6.30
35 | CCn1nc(C)cc1C(=O)NCCCc1ccc(-c2ccccc2F)cc1 [Compound 109, 1-ethyl-N-(3-(2′-fluoro-[1,1′-biphenyl]-4-yl)propyl)-3-methyl-1H-pyrazole-5-carboxamide] | 6.00 to 6.30
36 | Cc1ncccc1C(=O)NCCCc1ccc(-c2ccc3c(c2)OCC(=O)N3)cc1 [Compound 314, 2-methyl-N-(3-(4-(3-oxo-3,4-dihydro-2H-benzo[b][1,4]oxazin-7-yl)phenyl)propyl)nicotinamide] | > 6.30
37 | Cc1ccc(C(=O)NCC2(Cc3ccc(-c4ccc5c(cnn5C)c4)cc3)CC2)cn1 [Compound 303, 6-methyl-N-((1-(4-(1-methyl-1H-indazol-5-yl)benzyl)cyclopropyl)methyl) nicotinamide] | < 5.30
38 | O=C(Cc1ccc(F)cc1)NCCCc1ccc(-c2ccccc2F)cc1 [Compound 284, N-(3-(2′-fluoro-[1,1′-biphenyl]-4-yl)propyl)-2-(4-fluorophenyl)acetamide] | > 6.30
39 | Cc1ccc(C(=O)NCCOc2ccc(-c3ccccc3F)cc2)cn1 [Compound 282, N-(2-((2′-fluoro-[1,1′-biphenyl]-4-yl)oxy)ethyl)-6-methylnicotinamide] | < 5.30
40 | Cc1ccc(NC(=O)N2CCN(c3ccc(-c4ccccc4F)cc3)CC2)cn1 [Compound 279, 4-(2′-fluoro-[1,1′-biphenyl]-4-yl)-N-(6-methylpyridin-3-yl)piperazine-1-carboxamide] | 6.00 to 6.30
41 | Cn1ccc2cc(-c3ccc(CCCC(=O)Nc4cccnc4)cc3)ccc21 [Compound 169, 4-(4-(1-methyl-1H-indol-5-yl)phenyl)-N-(pyridin-3-yl)butanamide] | 6.00 to 6.30
42 | O=C(CCCc1ccc(-c2ccccc2F)cc1)NC1COC1 [Compound 55, 4-(2′-fluoro-[1,1′-biphenyl]-4-yl)-N-(oxetan-3-yl)butanamide] | 5.30 to 6.00
43 | O=C(CCCc1ccc(-c2ccc3ncccc3c2)cc1)Nc1cccnc1 [Compound 163, N-(pyridin-3-yl)-4-(4-(quinolin-6-yl)phenyl)butanamide] | > 6.30
44 | COc1ccc(CC(=O)NCCCc2ccc(-c3ccc4[nH]ncc4c3C)cc2)cc1 [Compound 247, 2-(4-methoxyphenyl)-N-(3-(4-(4-methyl-1H-indazol-5-yl)phenyl)propyl)acetamide] | > 6.30
45 | Cn1ncc2cc(-c3ccc(CCCC(=O)Nc4cccnc4)cc3)ccc21 [Compound 148, 4-(4-(1-methyl-1H-indazol-5-yl)phenyl)-N-(pyridin-3-yl)butanamide] | > 6.30
